According to patent US11633505B2, “Nuclear magnetic resonance diagnostic agent, and method for detecting or diagnosing state of cell, tissue or organ in subject using same” (National University Corporation Kumamoto University, priority 2012, dated 2023):

Tested on: Brain tumor (9 L gliosarcoma)
Assay: MRI (7T, 2D-RARE) T1/T2 measurement of excised subcutaneous tumor after ALA administration
Details: for Average T1 value / Average T2 value: ROI in excised tumor portion, ALA 100 mg/kg, 3 hours after administration, 7T-MRI, mean ± standard deviation

For `NCC(=O)CCC(=O)O` [ALA, 5-aminolevulinic acid], the “Average T1 value” (First average) was 2004 ± 73 ms, the “Average T2 value” (First average) was 146 ± 22 ms and the “Average T1 value” (Second average) was 2188 ± 210 ms. The “Average T2 value” (Second average) was 123 ± 5.7 ms, the “signal ratio (ALA administration group/control group) of T2 value” (first measurement) was “approximately 1.4 times” and the “signal ratio (ALA administration group/control group) of T2 value” (second measurement) was “approximately 1.3 times”.
